Test results published in US6703373B1, “Indolopyrrolocarbazole derivatives and antitumor agents” (Banyu Pharmaceutical Co., Ltd., priority 2002, dated 2004).

How the values were obtained:
[1] = system: mouse leukemia cells (P388); assay: Growth inhibition activity on mouse leukemia cells (P388); type: cell-based; conditions: 24 h with compound, Thiazoyl Blue, absorbance 550 nm, read-out: 50% inhibition concentration (IC50, nM) P-388
Description: Growth Inhibition Activity on Mouse Leukemia Cells
10 μl of a medium containing a test compound was added, and culture was continued at 37° C. for further 24 hours under 5% CO2. 10 μl of 0.5% Thiazoyl Blue was added to the cultured medium, and incubation was made at 37° C. for 2 hours under 5% CO2 to carry out enzymatic reaction. 20% sodium dodecyl sulfate (SDS) was added to discontinue the reaction, and incubation was carried out at 37° C. for further 4 hours to dissolve the resulting dye, and absorbance at 550 nm was measured and compared with the control group.

[2] = system: human colon cancer cells (DLD-1); assay: Growth inhibition activity on human colon cancer cells (DLD-1); type: cell-based; conditions: DLD-1 cells, 72 h with compound, Sulforhodamine B, absorbance 560 nm; read-out: 50% inhibition concentration (IC50, nM) DLD-1
Description: (§1) Growth Inhibition Activity on Human Gastric Cancer Cells, Human Colon Cancer Cells and Human Lung Cancer Cells
(§2) 100 μl of a medium containing a test compound was added, and culture was continued at 37° C. for further 72 hours under 5% CO2. After completion of the culture, 50 μl of 50% trichloroacetic acid was added to the cultured medium, and the mixtures were held at 4° C. for 60 minutes to fix the cells. The cultured medium containing trichloroacetic acid was removed, and the wells were washed with tap water and dried. 50 μl of 0.4% Sulforhodamine B solution was added, and the mixtures were held at room temperature for 30 minutes to dye the cells. The dyeing solutions were removed, and the remaining dyeing solutions were washed away with 1% acetic acid. After complete removal of the acetic acid solution and drying, 200 μl of […] Tris solution was added and the mixtures were mixed well at room temperature for 1 hour or more to extract the dye. Absorbance of each well at 560 nm was measured, and the inhibition proportion in comparison with the group of no addition of any drug was calculated.

[3] = system: human lung cancer cells (PC-13); assay: Growth inhibition activity on human lung cancer cells (PC-13); type: cell-based; conditions: PC-13 cells, 72 h with compound, Sulforhodamine B, absorbance 560 nm; read-out: 50% inhibition concentration (IC50, nM) PC-13
Description: as §1, §2

[4] = system: human gastric cancer cells (MKN-45); assay: Growth inhibition activity on human gastric cancer cells (MKN-45); type: cell-based; conditions: MKN-45 cells, 72 h with compound, Sulforhodamine B, absorbance 560 nm; read-out: 50% inhibition concentration (IC50, nM) MKN-45
Description: as §1, §2

Human breast cancer MX-1 = assay: Antitumor effect on human breast cancer (MX-1) solid tumor implanted in mice; type: in vivo, mouse; conditions: total dose to inhibit tumor growth by 75%; s.c. implanted tumor in mice, tail vein injection, 5/w×2 or 2/w×2, measured 28 after start
Description: (§3) Antitumor Effect on Human Gastric Cancer (MKN-45), Human Breast Cancer (MX-1) and Human Colon Cancer (LS180)
(§4) A MKN-45, MX-1 or LS180 solid tumor previously subcutaneously implanted in a nude mouse and grown was thinly cut, and its cubes with each side 3 mm were subcutaneously implanted in test mice. After the implantation, starting from the time when the tumor grew into 0.3 cm^3 or more, various dosages of a test compound were injected once a day for 5 consecutive days into the tail veins of the mice. The same injections were then made for further 5 days after 2 days of interval (treatment schedule: 5/w×2) or once every 3-4 days, four times in total (treatment schedule: 2/w×2). 28 after the start of the treatment, the length (L) and the breadth (W) of each of the tumors were measured, and its volume (V) was calculated (V=½×L×W^2).

[5] = system: Human gastric cancer MKN-45; assay: Antitumor effect on human gastric cancer (MKN-45) solid tumor implanted in mice; type: in vivo, mouse; conditions: total dose to inhibit tumor growth by 75%; s.c. implanted tumor in mice, tail vein injection, 5/w×2 or 2/w×2, measured 28 after start
Description: as §3, §4

Human colon cancer LS180 = assay: Antitumor effect on human colon cancer (LS180) solid tumor implanted in mice; type: in vivo, mouse; conditions: total dose to inhibit tumor growth by 75%; s.c. implanted tumor in mice, tail vein injection, 5/w×2 or 2/w×2, measured 28 after start
Description: as §3, §4

O=C1c2c(c3c4cccc(O)c4n(C4OC(CO)C(O)C(O)C4O)c3c3[nH]c4c(O)cccc4c23)C(=O)N1NCc1cccc(O)c1 (stereo not drawn) [Control compound 2, reference compound]
IC50 [1]: 6.5 nM | IC50 [2]: 76 nM | IC50 [3]: 48 nM | IC50 [4]: 12 nM

O=C1c2c(c3c4ccc(O)cc4n(C4OC(CO)C(O)C(O)C4O)c3c3[nH]c4cc(O)ccc4c23)C(=O)N1NCc1cccc(O)c1 (stereo not drawn) [Control compound, reference compound]
GID75 (mg/m^2 total) Human breast cancer MX-1 (Human breast cancer MX-1): 97 mg/m^2 | GID75 (mg/m^2 total) Human gastric cancer MKN-45 [5]: 370 mg/m^2 | GID75 (mg/m^2 total) Human colic cancer LS180 (Human colon cancer LS180): 1900 mg/m^2

O=C1c2c(c3c4ccc(O)cc4n([C@@H]4O[C@H](CO)[C@@H](O)[C@H](O)[C@H]4O)c3c3[nH]c4cc(O)ccc4c23)C(=O)N1NCc1ccncc1CO [Example 3]
GID75 (mg/m^2 total) Human breast cancer MX-1 (Human breast cancer MX-1): <12 mg/m^2 | GID75 (mg/m^2 total) Human gastric cancer MKN-45 [5]: <30 mg/m^2 | GID75 (mg/m^2 total) Human colic cancer LS180 (Human colon cancer LS180): 48 mg/m^2 | IC50 [1]: 0.28 nM | IC50 [2]: 0.91 nM | IC50 [3]: 0.22 nM | IC50 [4]: 0.35 nM

O=C1c2c(c3c4ccc(O)cc4n([C@@H]4O[C@H](CO)[C@@H](O)[C@H](O)[C@H]4O)c3c3[nH]c4cc(O)ccc4c23)C(=O)N1NCc1cccc(CO)n1 [Example 15]
GID75 (mg/m^2 total) Human breast cancer MX-1 (Human breast cancer MX-1): <6 mg/m^2 | GID75 (mg/m^2 total) Human gastric cancer MKN-45 [5]: <90 mg/m^2 | GID75 (mg/m^2 total) Human colic cancer LS180 (Human colon cancer LS180): 400 mg/m^2 | IC50 [1]: 0.5 nM | IC50 [2]: 4.3 nM | IC50 [3]: 0.62 nM | IC50 [4]: 2.1 nM

O=C1c2c(c3c4ccc(O)cc4n([C@@H]4O[C@H](CO)[C@@H](O)[C@H](O)[C@H]4O)c3c3[nH]c4cc(O)ccc4c23)C(=O)N1NCc1sc(CO)cc1CO [Example 16]
GID75 (mg/m^2 total) Human breast cancer MX-1 (Human breast cancer MX-1): <36 mg/m^2 | IC50 [1]: 0.4 nM | IC50 [2]: 4 nM | IC50 [3]: 0.56 nM | IC50 [4]: 1.3 nM

O=C1c2c(c3c4ccc(O)cc4n([C@@H]4O[C@H](CO)[C@@H](O)[C@H](O)[C@H]4O)c3c3[nH]c4cc(O)ccc4c23)C(=O)N1NCc1ccsc1CO [Example 18]
GID75 (mg/m^2 total) Human breast cancer MX-1 (Human breast cancer MX-1): 16 mg/m^2 | IC50 [1]: 0.43 nM | IC50 [2]: 4.6 nM | IC50 [3]: 0.3 nM | IC50 [4]: 0.66 nM

O=C1c2c(c3c4ccc(O)cc4n([C@@H]4O[C@H](CO)[C@@H](O)[C@H](O)[C@H]4O)c3c3[nH]c4cc(O)ccc4c23)C(=O)N1NCc1sccc1CO [Example 19]
GID75 (mg/m^2 total) Human breast cancer MX-1 (Human breast cancer MX-1): <30 mg/m^2 | IC50 [1]: 0.19 nM | IC50 [2]: 1.3 nM | IC50 [3]: 0.5 nM | IC50 [4]: 0.92 nM

O=C1c2c(c3c4ccc(O)cc4n([C@@H]4O[C@H](CO)[C@@H](O)[C@H](O)[C@H]4O)c3c3[nH]c4cc(O)ccc4c23)C(=O)N1NCc1cscc1CO [Example 20]
GID75 (mg/m^2 total) Human breast cancer MX-1 (Human breast cancer MX-1): <30 mg/m^2 | IC50 [1]: 0.87 nM | IC50 [2]: 1 nM | IC50 [3]: 0.67 nM | IC50 [4]: 0.92 nM

O=C1c2c(c3c4ccc(O)cc4n([C@@H]4O[C@H](CO)[C@@H](O)[C@H](O)[C@H]4O)c3c3[nH]c4cc(O)ccc4c23)C(=O)N1NCc1ccc(CO)o1 [Example 22]
IC50 [1]: 0.63 nM | IC50 [2]: 1 nM | IC50 [3]: 0.58 nM | IC50 [4]: 1.8 nM

O=C1c2c(c3c4ccc(O)cc4n([C@@H]4O[C@H](CO)[C@@H](O)[C@H](O)[C@H]4O)c3c3[nH]c4cc(O)ccc4c23)C(=O)N1NCc1csc(CO)c1 [Example 23]
GID75 (mg/m^2 total) Human breast cancer MX-1 (Human breast cancer MX-1): 19 mg/m^2 | IC50 [1]: 0.48 nM | IC50 [2]: 8.9 nM | IC50 [3]: 2.3 nM | IC50 [4]: 1.5 nM

O=C1c2c(c3c4ccc(O)cc4n([C@@H]4O[C@H](CO)[C@@H](O)[C@H](O)[C@H]4O)c3c3[nH]c4cc(O)ccc4c23)C(=O)N1NCc1ccncc1 [Example 24]
GID75 (mg/m^2 total) Human breast cancer MX-1 (Human breast cancer MX-1): 27 mg/m^2 | GID75 (mg/m^2 total) Human gastric cancer MKN-45 [5]: 12 mg/m^2 | GID75 (mg/m^2 total) Human colic cancer LS180 (Human colon cancer LS180): 114 mg/m^2 | IC50 [1]: 0.48 nM | IC50 [2]: 3.3 nM | IC50 [3]: 0.27 nM | IC50 [4]: 0.71 nM
